This note sets out measurements from patent US10544150B2, “NK-3 receptor selective antagonist compounds, pharmaceutical composition and methods for use in NK-3 receptors mediated disorders” (Ogeda SA, priority 2010, dated 2020).

Chain of human NK-3 receptor (P29371 whole entry): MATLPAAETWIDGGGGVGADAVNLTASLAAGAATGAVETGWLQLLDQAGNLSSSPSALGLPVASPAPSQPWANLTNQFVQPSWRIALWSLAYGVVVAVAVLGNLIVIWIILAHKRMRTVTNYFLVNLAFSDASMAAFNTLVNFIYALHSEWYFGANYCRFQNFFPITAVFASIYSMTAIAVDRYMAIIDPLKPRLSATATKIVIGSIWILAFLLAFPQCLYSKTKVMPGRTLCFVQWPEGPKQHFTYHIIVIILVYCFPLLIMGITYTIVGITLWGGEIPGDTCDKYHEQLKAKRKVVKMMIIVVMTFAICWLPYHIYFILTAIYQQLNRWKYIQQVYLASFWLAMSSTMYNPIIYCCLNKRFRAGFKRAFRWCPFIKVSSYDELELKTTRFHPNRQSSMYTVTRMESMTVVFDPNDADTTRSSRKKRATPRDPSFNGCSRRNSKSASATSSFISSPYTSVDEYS

This test concerns the target human NK-3 receptor (Homo sapiens (Human), UniProt P29371). Put plainly: 3H-SB222200 binding competition assay with human NK-3 receptor. The settings on record: 3H-SB222200 displacement, CHO cell membranes expressing human NK3 receptor; read-out: Ki range. The method, then: The affinity of compounds of the invention for the tachykinin receptors was determined by measuring the ability of the compounds of the invention to displace a radiolabeled ligand from its specifics binding site.
^3H-SB222200 Binding Competition Assay with Human NK-3 Receptor
The ability of the compounds of the invention to inhibit the binding of the NK-3 receptor selective antagonist SB222200 was assessed by an in vitro radioligand binding assay. Membranes were prepared from Chinese hamster ovary recombinant cells which express the human NK3 receptor. The membranes were incubated with 5 nM ^3H-SB222200_(ARC) in a HEPES 25 mM/NaCl 0.1M/CaCl2 1 mM/MgCl2 5 Mm/BSA 0.5%/Saponin 10 μg/ml buffer at pH 7.4 and various concentrations of the compounds of the invention. The amount of tritiated SB222200 bound to the receptor was determined after filtration by the quantification of membrane associated radioactivity using the TopCount-NXT reader (Packard). […] In Table 3 biological results obtained using the ^3H-SB222200 binding competition assay with compounds of the invention are set out in tabulated form. In this table the calculated Ki is given. The Ki value obtained (in accordance with the protocol set forth above) is represented as follows: “+++” means Ki<500 nM; “++” means 500 nM≤Ki≤1 μM; “+” means 1 μM<Ki≤5 μM; “#” means Ki>5 μM.
`O=C(c1ccc(-c2cccs2)cc1)N1CCn2c(nnc2-c2csc(-c3ccccn3)n2)C1` [Compound 224, (3-(2-(pyridin-2-yl)thiazol-4-yl)-5,6-dihydro-[1,2,4]triazolo[4,3-a]pyrazin-7(8H)-yl)(4-(thiophen-2-yl)phenyl)methanone]: the inhibition constant (Ki) is < 500 nM. With `O=C(c1ccc(-c2ccc(F)cc2)cc1)N1CCn2c(nnc2-c2nc(-c3ccc(F)cc3)no2)C1` [Compound 205, (4′-fluoro-[1,1′-biphenyl]-4-yl)(3-(3-(4-fluorophenyl)-1,2,4-oxadiazol-5-yl)-5,6-dihydro-[1,2,4]triazolo[4,3-a]pyrazin-7(8H)-yl)methanone], the Ki is 500 to 1000 nM. As to `O=C(c1ccc(-c2cccs2)cc1)N1CCn2c(nnc2-c2noc(-c3ccccc3)n2)C1` [Compound 171, (3-(5-phenyl-1,2,4-oxadiazol-3-yl)-5,6-dihydro-[1,2,4]triazolo[4,3-a]pyrazin-7(8H)-yl)(4-(thiophen-2-yl)phenyl)methanone], the Ki was < 500 nM.

In the case of `O=C(c1ccc(-c2ccccc2)nc1)N1CCn2c(nnc2-c2ccc3ccccc3n2)C1` [Compound 91, (6-phenylpyridin-3-yl)(3-(quinolin-2-yl)-5,6-dihydro-[1,2,4]triazolo[4,3-a]pyrazin-7(8H)-yl)methanone], the Ki was < 500 nM. As for `CS(=O)(=O)Nc1ccc(-c2nc(-c3nnc4n3CCN(C(=O)c3ccc(-c5cccs5)cc3)C4)cs2)cc1` [Compound 283, N-(4-(4-(7-(4-(thiophen-2-yl)benzoyl)-5,6,7,8-tetrahydro-[1,2,4]triazolo[4,3-a]pyrazin-3-yl)thiazol-2-yl)phenyl)methanesulfonamide], the Ki was 500 to 1000 nM. The figure for `C[C@H]1c2nnc(-c3ccccn3)n2CCN1C(=O)c1ccc(F)cc1` [Compound 159, (S)-(4-fluorophenyl)(8-methyl-3-(pyridin-2-yl)-5,6-dihydro-[1,2,4]triazolo[4,3-a]pyrazin-7(8H)-yl)methanone] is > 5000 nM; for `Cc1cccc(-c2nnc3n2CCN(C(=O)c2ccc(F)cc2)C3C)n1` (stereo not shown) [Compound 278, (4-fluorophenyl)(8-methyl-3-(6-methylpyridin-2-yl)-5,6-dihydro-[1,2,4]triazolo[4,3-a]pyrazin-7(8H)-yl)methanone] it is < 500 nM; for `COCCC1CN(c2nc(-c3nnc4n3CCN(C(=O)c3ccc(-c5cccs5)cc3)C4)cs2)CCO1` (stereo not shown) [Compound 257, (3-(2-(2-(2-methoxyethyl)morpholino)thiazol-4-yl)-5,6-dihydro-[1,2,4]triazolo[4,3-a]pyrazin-7(8H)-yl)(4-(thiophen-2-yl)phenyl)methanone] it is < 500 nM. For the compound `O=C(c1ccc(F)cc1)N1CCn2c(nnc2-c2csc(-c3ccc(N4CCCCC4)cc3)n2)C1` [Compound 244, (4-fluorophenyl)(3-(2-(4-(piperidin-1-yl)phenyl)thiazol-4-yl)-5,6-dihydro-[1,2,4]triazolo[4,3-a]pyrazin-7(8H)-yl)methanone], the Ki fell in the range of 500 to 1000 nM. With `O=C(c1ccc(F)cc1)N1CCn2c(nnc2-c2csc(N3CCOCC3)n2)C1` [Compound 9, (4-fluorophenyl)(3-(2-morpholinothiazol-4-yl)-5,6-dihydro-[1,2,4]triazolo[4,3-a]pyrazin-7(8H)-yl)methanone], the Ki is < 500 nM. The same measure for `CC(C)(C)OC(=O)NCCOc1ccccc1-c1nc(-c2nnc3n2CCN(C(=O)c2ccc(-c4cccs4)cc2)C3)cs1` [Compound 280, tert-butyl(2-(2-(4-(7-(4-(thiophen-2-yl)benzoyl)-5,6,7,8-tetrahydro-[1,2,4]triazolo[4,3-a]pyrazin-3-yl)thiazol-2-yl)phenoxy)ethyl)carbamate]: < 500 nM. The same measure for `O=C(c1ccc(F)cc1)N1CCn2c(nnc2-c2csc(N3CCC(F)(F)CC3)n2)C1` [Compound 258, (3-(2-(4,4-difluoropiperidin-1-yl)thiazol-4-yl)-5,6-dihydro-[1,2,4]triazolo[4,3-a]pyrazin-7(8H)-yl)(4-fluorophenyl)methanone]: < 500 nM; for `O=C(c1ccc(F)cc1)N1CCn2c(nnc2-c2nc(-c3ccccc3)no2)C1` [Compound 172, (4-fluorophenyl)(3-(3-phenyl-1,2,4-oxadiazol-5-yl)-5,6-dihydro-[1,2,4]triazolo[4,3-a]pyrazin-7(8H)-yl)methanone]: < 500 nM; for `O=C(c1ccc(-c2ccc(F)cc2)cc1)N1CCn2c(nnc2-c2csc(-c3ccccc3F)n2)C1` [Compound 183, (4′-fluoro-[1,1′-biphenyl]-4-yl)(3-(2-(2-fluorophenyl)thiazol-4-yl)-5,6-dihydro-[1,2,4]triazolo[4,3-a]pyrazin-7(8H)-yl)methanone]: < 500 nM. On to `O=C(c1ccc(-c2cccs2)cc1)N1CCn2c(nnc2-c2csc(-c3ccc(N4CCOCC4)cc3)n2)C1` [Compound 239, (3-(2-(4-morpholinophenyl)thiazol-4-yl)-5,6-dihydro-[1,2,4]triazolo[4,3-a]pyrazin-7(8H)-yl)(4-(thiophen-2-yl)phenyl)methanone], for which the Ki lay in the range of 1000 to 5000 nM. For the compound `O=C(c1ccc(-c2ccccc2)cc1)N1CCn2c(nnc2-c2ccc3ccccc3n2)C1` [Compound 19, [1,1′-biphenyl]-4-yl(3-(quinolin-2-yl)-5,6-dihydro-[1,2,4]triazolo[4,3-a]pyrazin-7(8H)-yl)methanone], the Ki was < 500 nM. Regarding `O=C(c1ccc(-c2cccs2)cc1)N1CCn2c(nnc2-c2csc(-c3ccc(F)cc3)n2)C1` [Compound 73, (3-(2-(4-fluorophenyl)thiazol-4-yl)-5,6-dihydro-[1,2,4]triazolo[4,3-a]pyrazin-7(8H)-yl)(4-(thiophen-2-yl)phenyl)methanone], the inhibitory constant (Ki) is < 500 nM. The same measure for `CN1CCN(c2nc(-c3nnc4n3CCN(C(=O)c3ccc(-c5cccs5)cc3)C4)cs2)CC1` [Compound 250, (3-(2-(4-methylpiperazin-1-yl)thiazol-4-yl)-5,6-dihydro-[1,2,4]triazolo[4,3-a]pyrazin-7(8H)-yl)(4-(thiophen-2-yl)phenyl)methanone]: 500 to 1000 nM; for `O=C(c1ccc(-c2cccs2)cc1)N1CCn2c(nnc2-c2csc(N3CCC(F)(F)CC3)n2)C1` [Compound 263, (3-(2-(4,4-difluoropiperidin-1-yl)thiazol-4-yl)-5,6-dihydro-[1,2,4]triazolo[4,3-a]pyrazin-7(8H)-yl)(4-(thiophen-2-yl)phenyl)methanone]: < 500 nM; for `O=C(c1ccc(F)cc1)N1CCn2c(nnc2-c2csc(N3CCCCC3)n2)C1` [Compound 33, (4-fluorophenyl)(3-(2-(piperidin-1-yl)thiazol-4-yl)-5,6-dihydro-[1,2,4]triazolo[4,3-a]pyrazin-7(8H)-yl)methanone]: < 500 nM. The figure for `CN(C)c1ccc(-c2nc(-c3nnc4n3CCN(C(=O)c3ccc(F)cc3)C4)cs2)cc1` [Compound 221, (3-(2-(4-(dimethylamino)phenyl)thiazol-4-yl)-5,6-dihydro-[1,2,4]triazolo[4,3-a]pyrazin-7(8H)-yl)(4-fluorophenyl)methanone] is 500 to 1000 nM; for `C[C@@H]1c2nnc(-c3ccccn3)n2CCN1C(=O)c1ccc(F)cc1` [Compound 44, (R)-(4-fluorophenyl)(8-methyl-3-(pyridin-2-yl)-5,6-dihydro-[1,2,4]triazolo[4,3-a]pyrazin-7(8H)-yl)methanone] it is 1000 to 5000 nM. In the case of `CC(C)c1nc(-c2nnc3n2CCN(C(=O)c2ccc(F)cc2)C3)cs1` [Compound 208, (4-fluorophenyl)(3-(2-isopropylthiazol-4-yl)-5,6-dihydro-[1,2,4]triazolo[4,3-a]pyrazin-7(8H)-yl)methanone], the Ki was 1000 to 5000 nM.

As for `CC1c2nnc(-c3coc(-c4ccccc4)n3)n2CCN1C(=O)c1ccc(-c2ccccc2)cc1` (stereo not shown) [Compound 49, [1,1′-biphenyl]-4-yl(8-methyl-3-(2-phenyloxazol-4-yl)-5,6-dihydro-[1,2,4]triazolo[4,3-a]pyrazin-7(8H)-yl)methanone], the inhibition constant Ki is < 500 nM.

As to `C[C@@H]1c2nnc(-c3csc(N4CCOCC4)n3)n2CCN1C(=O)c1ccc(-c2ccc(F)cc2)cc1` [Compound 134, (R)-(4′-fluoro-[1,1′-biphenyl]-4-yl)(8-methyl-3-(2-morpholinothiazol-4-yl)-5,6-dihydro-[1,2,4]triazolo[4,3-a]pyrazin-7(8H)-yl)methanone], the Ki is < 500 nM.

With `CN(C)c1ccc(-c2nc(-c3nnc4n3CCN(C(=O)c3ccc(-c5cccs5)cc3)C4)cs2)cc1` [Compound 229, (3-(2-(4-(dimethylamino)phenyl)thiazol-4-yl)-5,6-dihydro-[1,2,4]triazolo[4,3-a]pyrazin-7(8H)-yl)(4-(thiophen-2-yl)phenyl)methanone], the Ki is < 500 nM. Turning to `CC1CN(c2nc(-c3nnc4n3CCN(C(=O)c3ccc(-c5cccs5)cc3)C4)cs2)CCO1` (stereo not shown) [Compound 273, (3-(2-(2-methylmorpholino)thiazol-4-yl)-5,6-dihydro-[1,2,4]triazolo[4,3-a]pyrazin-7(8H)-yl)(4-(thiophen-2-yl)phenyl)methanone], the Ki is < 500 nM. On to `C[C@@H]1c2nnc(-c3coc(-c4ccccc4)n3)n2CCN1C(=O)c1ccc(-c2ccccc2)cc1` [Compound 131, (R)-[1,1′-biphenyl]-4-yl(8-methyl-3-(2-phenyloxazol-4-yl)-5,6-dihydro-[1,2,4]triazolo[4,3-a]pyrazin-7(8H)-yl)methanone], for which the inhibition constant Ki is < 500 nM.

One may read the Ki as the dissociation constant of the complex between target and ligand, obtained from inhibition or displacement.
